Results as given in patent publication US11406605B2, “Therapeutic compositions for treating pancreatic cancer” (Golden Biotechnology Corporation, priority 2017, dated 2022).
Where “and” joins values, the source holds several entries; their conditions need not be identical. Equal values may be shown once.

Tests used:
[1] = test system: metastatic pancreatic cancer; assay: Phase I study of Compound 1 with nab-paclitaxel and gemcitabine, preliminary results; type: in vivo, human; conditions: 600 mg daily dosage of Compound 1 in combination with nab-paclitaxel and gemcitabine; after 3rd cycle (8 weeks treatment); individual patients
Source text: This is a single-arm, open-label, multi-center Phase I study of Compound 1 in combination with nab-paclitaxel and gemcitabine in first line treatment naïve subjects with Stage IV metastatic pancreatic carcinoma.
The first part of the study will follow a 3+3 dose escalation design to determine the MTD or MFD (based on PK and capsules strength) of antroquinonol in combination with standard dose regimen of nab-paclitaxel and gemcitabine. Two dose levels of antroquinonol given TID are planned based on dose escalation data and capsules strengths. The final number of subjects will be based on the number of dose levels investigated and DLTs occurrence. Up to 12 subjects may be treated in this part of the study. A Safety Monitoring Committee (SMC) will be set up for this study to review DLTs and overall safety data and judge the relevance of events to the dose escalation scheme. […]
Treatments Administered: Compound 1 will be administered in 200- to 300-mg doses (planned dose levels), TID, given in 100 mg capsules (resulting a daily dosage of 600 mg to 900 mg). Additional dose levels may be investigated as determined by the study SMC. […]
Efficacy Assessments: The RECIST 1.1 criteria will be used to assess subject response to treatment by determining ORR, DoR, DCR, PFS, PFS 3 months, and PFS 6 months. […] The OS, OS 6 months, and OS 12 months will also be evaluated.

[2] = test system: AsPC-1 pancreatic cancer cells; assay: Cytotoxicity of test articles (TC50), MTT assay; type: cell-based, Human; conditions: Homo sapiens, ASPC1, AsPC-1 cells, concentration at which cell viability was reduced to 50%
Description: The human pancreatic carcinoma cell lines, AsPC-1, PANC-1 and CaPan-2 were seeded 3×10^4 cells per well and cultured in a forty-eight (48) well cell culture dish (growth area 0.95 cm^2 per well). Sixteen (16) hours later, cells were treated Compound 1 alone or Compound 1 with a clinical chemotherapy drug, respectively. After 48 or 72 hours of the treatment, methylthiazoletetrazolium (MTT) assay (supplemental protocol-1) was performed to measure the effect of treatment on the viability of cells during proliferation.
B. Cell Preparation • 1. Remove and discard culture medium. • 2. Briefly rinse the cell layer with 5 mL HBSS. Gently shake and remove the HBSS. • 3. Add 5 mL trypsin-EDTA to 15 cm^2 polystyrene dishes. Incubate 5 mins at 37° C. in a humidified incubator with 95% air/5% CO2 atmosphere. • 4. Add 5 mL of complete growth medium (DMEM medium containing 10% FBS) and aspirate cells by gently pipetting. • 5. Count live cells using the trypan blue exclusion assay (supplemental protocol-2) with a hemocytometer. • 6. For in vitro study, cells will be seeded 3×10^4 cells per well and cultured in a forty-eight (48) wells cell culture dish for sixteen (16) hours until treatment. • 7. Incubate cultures at 37° C.
a. Cytotoxicity of test articles (TC50): AsPC-1 was seeded 3×10^4 cells (counted by Cell counter, LUNA™ Automated Cell Counter or hemocytometer) per well and cultured in a 48 wells cell culture dish. Cells were treated with single article from 400 or 800 μM with serial dilution to 0 μM. After 48 or 72 hours of treated, MTT assay was performed to measure the effect of treatment on the viability of AsPC-1 cells during proliferation. The absorbance at 595 nm was measured using a microplate reader (BioTEK, Synergy™ H1). Article sensitivity curves and TC50 values were calculated using GraphPad Prism 4.0 software.

[3] = test system: orthotopic PANC-1 human pancreatic cancer xenograft; conditions: 30, 60, and 90 mg/kg, cited from earlier work

COC1=C(OC)C(O)C(C/C=C(\C)CC/C=C(\C)CCC=C(C)C)C(C)C1=O (stereo not drawn) [Compound 1, 4-hydroxy-2,3-dimethoxy-6-methyl-5-(3,7,11-trimethyldodeca-2,6,10-trienyl)cyclohex-2-enone]
patient tumor size after treatment [1]: 84 mm and 39 mm | patient tumor size reduced [1]: 7.6% and 22% | CC50 ([2]; 48 hrs): 58.1 µM | CC50 ([2]; 72 hrs): 24 µM | tolerability, body weight loss ([3]; tumor bearing mice): tolerated well | anti-tumor activity (mean tumor volumes and tumor weights vs vehicle control) ([3]; measured 10 days after drug treatment): effective anti-tumor activity
